Source: US9340559B2, “Proteasome inhibitor delanzomib for use in the treatment of lupus” (Cephalon, Inc., priority 2011, dated 2016)

Experiments:
[1] = tested on: NZM mice; test: Antibody secreting B-cell Elispot (anti-chromatin, total IgG ASC), spleens of NZM mice (Example 2); format: in vivo, mouse
Procedure: (§1) FIG. 34 depicts the frequency of anti-chromatin antibody secreting cells in the spleens of NZM mice. NZM treated mice spleens were processed for splenocytes for ex vivo Elispot assays. Elispot wells were coated with 10 μg/mL of boiled chicken chromatin or ovalbumin protein. Fresh, whole splenocytes were added to each well at 50,000 cells per well in cell culture medium. Cells were incubated overnight at 37° C. Developed wells provided spots that were counted as frequency of ASCs per million splenocytes.
as §1, with “35” for “34”, “total IgG” for “anti-chromatin”, “anti-mouse IgG, IgH, and IgL chains.” for “boiled chicken chromatin or ovalbumin protein.”
B-cell Elispot components are ordered from MabTech (Nacka Strand, Sweden) and nitrocellulose IP filter plates are ordered from Millipore (Billerica, Mass.). Elispot wells are coated with either purified bovine thymus dsDNA (Sigma), purified bovine Smith antigen (GenWay) or boiled filtered purified chicken chromatin from lysed chicken red blood cells (Rockland, Gilbertsville, Pa.) at 10 μg/mL. Spleens are processed using glass homogenization (frosted slides). Dispersed cell contents are washed in sterile HBSS and RBCs lysed using 1×RBC lysis buffer (BioLegend, Cat #420301). Processed splenocytes are added to each well and are not stimulated with lipopolysaccharide (LPS) to avoid skewing of true ex vivo frequencies of antibody-secreting cell types (ASCs). Anti-mouse pan-IgG is used as a positive control for total IgG producing ASCs and is used to normalize results. Frequencies for each antigen are identified in an initial test phase for each model. For chromatin and total IgG only, 30,000 splenocytes are added to each well; for Smith antigen and dsDNA, 500,000 cells are added to each well. Different numbers of splenocytes are added for different antigens due to saturation limits of spot frequencies per well. B-cell Elispots are incubated overnight at 37° C. To develop each assay, secondary antibody is added to each well, incubated, washed and alkaline phosphatase strepavidin (Jackson ImmunoResearch, West Grove, Pa.) is used as the conjugate; substrate used is BCIP-NBT (MabTech, Cincinnati, Ohio). Plates are developed until spots are visible. All Elispot analyses are performed using an Immunospot C.T.L. scanner and Biospot software (Cellular Technology Ltd., Shaker Heights, Ohio). Results are shown as values from which media and cells only wells are subtracted. Some values are negative due to high background.

[2] = tested on: MRL/lpr mice; test: Antibody secreting B-cell Elispot (anti-Smith Ag, anti-dsDNA, anti-chromatin ASC), spleens of MRL/lpr mice; format: in vivo, mouse
Procedure: as §1, with “9” for “34”, “depicts” for “depicts the”, “anti-Smith antigen and anti-dsDNA” for “anti-chromatin”, “MRL/lpr” for “NZM”, “smith antigen, dsDNA” for “boiled chicken chromatin”, “500,000” for “50,000”
as §1, with “10” for “34”, “MRL/lpr” for “NZM”
B-cell Elispot components are ordered from MabTech (Nacka Strand, Sweden) and nitrocellulose IP filter plates are ordered from Millipore (Billerica, Mass.). Elispot wells are coated with either purified bovine thymus dsDNA (Sigma), purified bovine Smith antigen (GenWay) or boiled filtered purified chicken chromatin from lysed chicken red blood cells (Rockland, Gilbertsville, Pa.) at 10 μg/mL. Spleens are processed using glass homogenization, filtered through a 60 μm sterile cell strainer and red blood cells (RBCs) lysed using BioLegend (San Diego, Calif.) lysis buffer. Processed splenocytes are added to each well in culture medium. To avoid skewing of true ex vivo frequencies of antibody secreting cell types (ASCs), cells are not stimulated with a polyclonal mitogen like LPS, but rather incubated in media alone to allow monitoring of genuine ex vivo antibody release. Anti-mouse pan-IgG is used as a positive control for total IgG producing ASCs and is used to normalize results. Frequencies for each antigen are identified in an initial test phase for each model. For chromatin and total IgG only, 30,000 splenocytes are added to each well; for Smith antigen and dsDNA, 500,000 cells are added to each well. Different numbers of splenocytes are added for different antigens due to saturation limits of spot frequencies per well. These limits are previously established. B-cell Elispots are incubated overnight at 37° C. To develop each assay, secondary antibody is added to each well, incubated, washed and alkaline phosphatase strepavidin is used as the conjugate; substrate used is BCIP-NBT. Plates are developed until spots are visible. All Elispot analyses are performed using an Immunospot C.T.L. scanner and Biospot software (Cellular Technology Ltd., Shaker Heights, Ohio). Results are shown as values from which media and cells only wells are subtracted. Some values are negative due to high background.

## C[C@@H]1C[C@H]2[C@@H]3CCC4=CC(=O)C=C[C@]4(C)[C@@]3(F)[C@@H](O)C[C@]2(C)[C@@]1(O)C(=O)CO [dexamethasone, Dexamethasone, reference compound]
[1]; G5 1.5 mg/kg ip, 3× wk
  ASC chromatin EOS, percent change vs vehicle: −42%
  ASC total IgG EOS, percent change vs vehicle: +19%
[1]; G8 1.5 mg/kg 3× wk ip
  p, frequency of total IgG antibody secreting cells in spleen vs G7 CTX 50 mg/kg 1× wk ip: p < 0.01
[2]; G6: 1.5 mg/kg ip, 3× wk
  ASC EOS Smith Ag, percent change vs vehicle: +40%
  ASC EOS chromatin, percent change vs vehicle: −22%
  ASC EOS dsDNA, percent change vs vehicle: +129%

## CC(C)C[C@H](NC(=O)[C@H](Cc1ccccc1)NC(=O)c1cnccn1)B(O)O [bortezomib, reference compound]
[1]; G3 0.3 mg/kg ip, 1× wk
  ASC chromatin EOS, percent change vs vehicle: −46%
  ASC total IgG EOS, percent change vs vehicle: −1%
[1]; G4 0.3 mg/kg ip, 2× wk
  ASC chromatin EOS, percent change vs vehicle: −74%
  ASC total IgG EOS, percent change vs vehicle: −31%
[2]; G4: 0.5 mg/kg iv, 1× wk
  ASC EOS Smith Ag, percent change vs vehicle: −74%
  ASC EOS chromatin, percent change vs vehicle: −64%
  ASC EOS dsDNA, percent change vs vehicle: −58%
[2]; G5: 0.3 mg/kg iv, 2× wk
  ASC EOS Smith Ag, percent change vs vehicle: +73%
  ASC EOS chromatin, percent change vs vehicle: +5%
  ASC EOS dsDNA, percent change vs vehicle: +219%

## CC(C)C[C@H](NC(=O)[C@@H](NC(=O)c1cccc(-c2ccccc2)n1)[C@@H](C)O)B(O)O [COMPOUND A, [(1R)-1-[[(2S,3R)-3-hydroxy-2-[6-phenyl-pyridine-2-carbonyl)amino]-1-oxobutyl]amino]-3-methylbutylboronic acid]
[1]; COMPOUND A groups
  anti-chromatin ASC decrease vs vehicle: 96-100%
[1]; G1 3 mg/kg 1× wk ip
  p, frequency of anti-chromatin antibody secreting cells in spleen vs G5 Bortezomib 0.3 mg/kg 1× wk ip: p < 0.001
  p, frequency of anti-chromatin antibody secreting cells in spleen vs G6 Bortezomib 0.3 mg/kg 2× wk ip: p < 0.01
  p, frequency of anti-chromatin antibody secreting cells in spleen vs G8 Dex 1.5 mg/kg 3× wk ip: p < 0.01
  p, frequency of anti-chromatin antibody secreting cells in spleen vs G9 Vehicle 1× wk ip: p < 0.01
  p, frequency of total IgG antibody secreting cells in spleen vs G5 Bortezomib 0.3 mg/kg 1× wk ip: p < 0.01
  p, frequency of total IgG antibody secreting cells in spleen vs G7 CTX 50 mg/kg 1× wk ip: p < 0.01
  p, frequency of total IgG antibody secreting cells in spleen vs G8 Dex 1.5 mg/kg 3× wk ip: p < 0.01
  p, frequency of total IgG antibody secreting cells in spleen vs G9 Vehicle 1× wk ip: p < 0.05
[1]; G1 3 mg/kg ip, 1× wk
  ASC chromatin EOS, percent change vs vehicle: −96%
  ASC total IgG EOS, percent change vs vehicle: −62%
[1]; G2 3 mg/kg 2× wk ip
  p, frequency of anti-chromatin antibody secreting cells in spleen vs G5 Bortezomib 0.3 mg/kg 1× wk ip: P < 0.01
  p, frequency of anti-chromatin antibody secreting cells in spleen vs G6 Bortezomib 0.3 mg/kg 2× wk ip: p < 0.05
  p, frequency of anti-chromatin antibody secreting cells in spleen vs G9 Vehicle 1× wk ip: p < 0.01
  p, frequency of total IgG antibody secreting cells in spleen vs G5 Bortezomib 0.3 mg/kg 1× wk ip: p < 0.001
  p, frequency of total IgG antibody secreting cells in spleen vs G7 CTX 50 mg/kg 1× wk ip: p < 0.01
  p, frequency of total IgG antibody secreting cells in spleen vs G8 Dex 1.5 mg/kg 3× wk ip: p < 0.01
  p, frequency of total IgG antibody secreting cells in spleen vs G9 Vehicle 1× wk ip: p < 0.01
[1]; G2 3 mg/kg ip, 2× wk
  ASC chromatin EOS, percent change vs vehicle: −100%
  ASC total IgG EOS, percent change vs vehicle: −67%
[1]; spleen
  total IgG producing ASC decrease vs vehicle: 62-67%
[2]; G1: 3 mg/kg iv, 1× wk
  ASC EOS Smith Ag, percent change vs vehicle: −97%
  ASC EOS chromatin, percent change vs vehicle: −89%
  ASC EOS dsDNA, percent change vs vehicle: −80%
[2]; G2: 3 mg/kg iv, 2× wk
  ASC EOS Smith Ag, percent change vs vehicle: −110%
  ASC EOS chromatin, percent change vs vehicle: −98%
  ASC EOS dsDNA, percent change vs vehicle: −84%
[2]; G3: 10 mg/kg po, 2× wk
  ASC EOS Smith Ag, percent change vs vehicle: −86%
  ASC EOS chromatin, percent change vs vehicle: −79%
  ASC EOS dsDNA, percent change vs vehicle: −82%
[2]; Group 1
  anti-Smith Ag IgG ASC frequency decrease vs vehicle: 97%
  anti-dsDNA IgG ASC frequency decrease vs vehicle: 80%
[2]; Group 2
  anti-Smith Ag IgG ASC frequency decrease vs vehicle: 100%
  anti-dsDNA IgG ASC frequency decrease vs vehicle: 84%
[2]; Group 3
  anti-Smith Ag IgG ASC frequency decrease vs vehicle: 86%
  anti-dsDNA IgG ASC frequency decrease vs vehicle: 82%
